# Results: patent US20240101540A1, “TARGETED PROTEIN DEGRADATION OF PARP14 FOR USE IN THERAPY” (Ribon Therapeutics, Inc., priority 2022, published 2024)
# Where a name gives a salt, the structure may show the parent alone.
# Biological target: T1, HiBiT tagged PARP14 (Homo sapiens, UniProt Q460N5)
# T1 construct: engineered to contain a HiBiT tag on both alleles of the PARP14 gene; endogenous in cells; host or cells: Jurkat cells stably transfected with LgBiT (Promega), PARP14 locus edited by CRISPR/Cas9
# Experiment: HiBiT assay for the degradation of PARP14 (HiBiT tagged PARP14 in LgBiT expressing Jurkat cells, 2 or 24 hours)
# Format: cell-based
# Conditions: Assay B (Example B): HiBiT tagged PARP14 degradation in LgBiT expressing Jurkat cells, read-out: DC50
# Outline: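 Luminescence from HiBiT–LgBiT complementation served as proxy for endogenous PARP14 level in edited LgBiT Jurkat cells (5,000/well). After 2 or 24 h compound exposure at 37 °C, signal read with Live Cell Substrate, expressed as % of 0.1% DMSO control, and fitted (4-parameter, free Hill) for DC50.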
# T1 sequence (Q460N5 whole entry): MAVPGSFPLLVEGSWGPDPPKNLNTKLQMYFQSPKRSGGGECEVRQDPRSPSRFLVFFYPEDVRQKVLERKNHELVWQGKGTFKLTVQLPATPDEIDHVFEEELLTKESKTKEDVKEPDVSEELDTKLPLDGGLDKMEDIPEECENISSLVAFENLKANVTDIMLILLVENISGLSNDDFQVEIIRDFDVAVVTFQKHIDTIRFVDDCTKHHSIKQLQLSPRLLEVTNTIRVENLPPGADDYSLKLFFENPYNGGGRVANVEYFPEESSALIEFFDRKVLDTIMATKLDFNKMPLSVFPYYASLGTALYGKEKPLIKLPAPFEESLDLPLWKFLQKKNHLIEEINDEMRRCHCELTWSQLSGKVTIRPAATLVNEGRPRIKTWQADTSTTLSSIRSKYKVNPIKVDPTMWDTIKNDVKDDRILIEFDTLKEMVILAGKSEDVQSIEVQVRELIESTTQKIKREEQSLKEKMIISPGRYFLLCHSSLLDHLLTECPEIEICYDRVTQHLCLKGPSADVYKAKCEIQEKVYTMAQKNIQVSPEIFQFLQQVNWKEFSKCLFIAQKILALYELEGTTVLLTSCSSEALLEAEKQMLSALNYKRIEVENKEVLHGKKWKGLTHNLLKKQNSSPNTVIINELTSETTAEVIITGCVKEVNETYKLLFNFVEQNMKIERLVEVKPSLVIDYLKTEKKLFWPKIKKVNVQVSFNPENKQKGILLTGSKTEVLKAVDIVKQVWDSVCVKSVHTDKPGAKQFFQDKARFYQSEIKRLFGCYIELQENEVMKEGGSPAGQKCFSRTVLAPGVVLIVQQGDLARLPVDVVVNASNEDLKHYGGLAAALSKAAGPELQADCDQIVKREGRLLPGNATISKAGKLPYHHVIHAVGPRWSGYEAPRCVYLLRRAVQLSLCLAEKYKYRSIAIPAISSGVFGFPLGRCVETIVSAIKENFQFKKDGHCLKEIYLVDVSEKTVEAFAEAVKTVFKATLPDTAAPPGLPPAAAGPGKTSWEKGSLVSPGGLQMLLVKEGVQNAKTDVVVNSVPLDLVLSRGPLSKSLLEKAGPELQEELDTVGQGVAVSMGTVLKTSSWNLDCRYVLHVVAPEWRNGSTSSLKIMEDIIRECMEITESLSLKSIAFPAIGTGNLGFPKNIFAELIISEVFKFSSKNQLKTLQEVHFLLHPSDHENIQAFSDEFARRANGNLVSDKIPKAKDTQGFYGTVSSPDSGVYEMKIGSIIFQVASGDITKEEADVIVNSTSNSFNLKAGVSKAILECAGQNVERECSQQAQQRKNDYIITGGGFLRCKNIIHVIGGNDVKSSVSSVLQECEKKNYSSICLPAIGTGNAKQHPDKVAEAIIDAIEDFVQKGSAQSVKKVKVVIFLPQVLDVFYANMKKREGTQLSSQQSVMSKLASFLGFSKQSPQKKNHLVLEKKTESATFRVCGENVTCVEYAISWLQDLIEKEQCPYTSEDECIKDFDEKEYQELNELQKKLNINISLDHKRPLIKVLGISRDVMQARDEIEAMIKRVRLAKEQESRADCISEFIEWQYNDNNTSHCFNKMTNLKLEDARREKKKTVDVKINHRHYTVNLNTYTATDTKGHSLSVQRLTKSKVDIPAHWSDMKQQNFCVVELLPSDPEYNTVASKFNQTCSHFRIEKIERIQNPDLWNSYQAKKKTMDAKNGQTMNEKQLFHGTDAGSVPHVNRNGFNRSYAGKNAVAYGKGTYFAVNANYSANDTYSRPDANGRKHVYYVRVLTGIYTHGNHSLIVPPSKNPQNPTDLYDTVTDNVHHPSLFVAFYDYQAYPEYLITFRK
row,SMILES,DC50
1,"O=C1CCC(Nc2ccc(N3CCC(N4CCC(COc5cc(F)c6c(=O)[nH]c(CSC7CCOCC7)nc6c5)CC4)CC3)cc2F)C(=O)N1 (stereo not drawn) [Example 222, 3-((2-fluoro-4-(4-(((5-fluoro-4-oxo-2-(((tetrahydro-2H-pyran-4-yl)thio)methyl)-3,4-dihydroquinazolin-7-yl)oxy)methyl)-[1,4′-bipiperidin]-1′-yl)phenyl)amino)piperidine-2,6-dione]",< 30 nM
2,"O=C1CCC(Nc2ccc(N3CCC(N4CCC(CCOc5cc(F)c6c(=O)[nH]c(CSC7CCOCC7)nc6c5)CC4)CC3)c(F)c2)C(=O)N1 (stereo not drawn) [Example 223, 3-((3-fluoro-4-(4-(2-((5-fluoro-4-oxo-2-(((tetrahydro-2H-pyran-4-yl)thio)methyl)-3,4-dihydroquinazolin-7-yl)oxy)ethyl)-[1,4′-bipiperidin]-1′-yl)phenyl)amino)piperidine-2,6-dione]",< 30 nM
3,"O=C1CCC(Nc2ccc(N3CCC(N4CCC(CN5CCC(COc6cc(F)c7c(=O)[nH]c(CSC8CCOCC8)nc7c6)CC5)CC4)CC3)c(F)c2)C(=O)N1 (stereo not drawn) [Example 224, 3-((3-fluoro-4-(4-((4-(((5-fluoro-4-oxo-2-(((tetrahydro-2H-pyran-4-yl)thio)methyl)-3,4-dihydroquinazolin-7-yl)oxy)methyl)piperidin-1-yl)methyl)-[1,4′-bipiperidin]-1′-yl)phenyl)amino)piperidine-2,6-dione]",< 30 nM
4,"O=C1CCC(Nc2ccc(N3CCC(N4CCC(C(=O)N5CCC(COc6cc(F)c7c(=O)[nH]c(CSC8CCOCC8)nc7c6)CC5)CC4)CC3)c(F)c2)C(=O)N1 (stereo not drawn) [Example 225, 3-((3-fluoro-4-(4-(4-(((5-fluoro-4-oxo-2-(((tetrahydro-2H-pyran-4-yl)thio)methyl)-3,4-dihydroquinazolin-7-yl)oxy)methyl)piperidine-1-carbonyl)-[1,4′-bipiperidin]-1′-yl)phenyl)amino)piperidine-2,6-dione]",< 30 nM
5,"O=C1CCC(Nc2ccc(N3CCN(CCN4CCC(C#Cc5cc(F)c6c(=O)[nH]c(CSC7CCOCC7)nc6c5)CC4)CC3)c(F)c2)C(=O)N1 (stereo not drawn) [Example 226, 3-((3-fluoro-4-(4-(2-(4-((5-fluoro-4-oxo-2-(((tetrahydro-2H-pyran-4-yl)thio)methyl)-3,4-dihydroquinazolin-7-yl)ethynyl)piperidin-1-yl)ethyl)piperazin-1-yl)phenyl)amino)piperidine-2,6-dione formate]",< 30 nM
6,"O=C1CCC(Nc2ccc(N3CC4(CC(CN5CCC(COc6cc(F)c7c(=O)[nH]c(CSC8CCOCC8)nc7c6)CC5)C4)C3)c(F)c2)C(=O)N1 (stereo not drawn) [Example 227, 3-((3-fluoro-4-(6-((4-(((5-fluoro-4-oxo-2-(((tetrahydro-2H-pyran-4-yl)thio)methyl)-3,4-dihydroquinazolin-7-yl)oxy)methyl)piperidin-1-yl)methyl)-2-azaspiro[3.3]heptan-2-yl)phenyl)amino)piperidine-2,6-dione formate]",< 30 nM
7,"O=C1CCC(Nc2ccc(N3CCC(N4CCC(N5CCC(COc6cc(F)c7c(=O)[nH]c(CSC8CCOCC8)nc7c6)CC5)CC4)CC3)c(F)c2)C(=O)N1 (stereo not drawn) [Example 228, 3-((3-fluoro-4-(4-(((5-fluoro-4-oxo-2-(((tetrahydro-2H-pyran-4-yl)thio)methyl)-3,4-dihydroquinazolin-7-yl)oxy)methyl)-[1,4′:1′,4″-terpiperidin]-1″-yl)phenyl)amino)piperidine-2,6-dione diformate]",< 30 nM
8,"COc1cc(N2CCC(CN3CCC(COc4cc(F)c5c(=O)[nH]c(CSC6CCOCC6)nc5c4)CC3)CC2)c(F)cc1NC1CCC(=O)NC1=O (stereo not drawn) [Example 229, 3-((5-fluoro-4-(4-((4-(((5-fluoro-4-oxo-2-(((tetrahydro-2H-pyran-4-yl)thio)methyl)-3,4-dihydroquinazolin-7-yl)oxy)methyl)piperidin-1-yl)methyl)piperidin-1-yl)-2-methoxyphenyl)amino)piperidine-2,6-dione]",< 30 nM
9,"O=C1CCC(Nc2ccc(N3CCC(N4CC(N5CCC(COc6cc(F)c7c(=O)[nH]c(CSC8CCOCC8)nc7c6)CC5)C4)CC3)c(C(F)(F)F)c2)C(=O)N1 (stereo not drawn) [Example 230, 3-((4-(4-(3-(4-(((5-fluoro-4-oxo-2-(((tetrahydro-2H-pyran-4-yl)thio)methyl)-3,4-dihydroquinazolin-7-yl)oxy)methyl)piperidin-1-yl)azetidin-1-yl)piperidin-1-yl)-3-(trifluoromethyl)phenyl)amino)piperidine-2,6-dione]",< 30 nM
10,"O=C1CCC(Nc2ccc(N3CCC(CN4CCC(N5CCC(COc6cc(F)c7c(=O)[nH]c(CSC8CCOCC8)nc7c6)CC5)CC4)CC3)c(F)c2)C(=O)N1 (stereo not drawn) [Example 231, 3-((3-fluoro-4-(4-((4-(((5-fluoro-4-oxo-2-(((tetrahydro-2H-pyran-4-yl)thio)methyl)-3,4-dihydroquinazolin-7-yl)oxy)methyl)-[1,4′-bipiperidin]-1′-yl)methyl)piperidin-1-yl)phenyl)amino)piperidine-2,6-dione]",< 30 nM
11,"O=C1CCC(Nc2ccc(N3CCC(N4CC(CN5CCC(COc6cc(F)c7c(=O)[nH]c(CSC8CCOCC8)nc7c6)CC5)C4)CC3)c(F)c2)C(=O)N1 (stereo not drawn) [Example 232, 3-((3-fluoro-4-(4-(3-((4-(((5-fluoro-4-oxo-2-(((tetrahydro-2H-pyran-4-yl)thio)methyl)-3,4-dihydroquinazolin-7-yl)oxy)methyl)piperidin-1-yl)methyl)azetidin-1-yl)piperidin-1-yl)phenyl)amino)piperidine-2,6-dione]",< 30 nM
12,"O=C1CCC(Nc2ccc(N3CCC(N4CC(N5CCC(COc6ccc7c(=O)[nH]c(CSC8CCOCC8)nc7c6)CC5)C4)CC3)c(F)c2)C(=O)N1 (stereo not drawn) [Example 233, 3-((3-fluoro-4-(4-(3-(4-(((4-oxo-2-(((tetrahydro-2H-pyran-4-yl)thio)methyl)-3,4-dihydroquinazolin-7-yl)oxy)methyl)piperidin-1-yl)azetidin-1-yl)piperidin-1-yl)phenyl)amino)piperidine-2,6-dione]",< 30 nM
13,"O=C1CCC(Nc2ccc(N3CCN(CCN4CCC(COc5cc(F)c6c(=O)[nH]c(CSC7CCOCC7)nc6c5)CC4)C(=O)C3)c(F)c2)C(=O)N1 (stereo not drawn) [Example 234, 3-((3-fluoro-4-(4-(2-(4-(((5-fluoro-4-oxo-2-(((tetrahydro-2H-pyran-4-yl)thio)methyl)-3,4-dihydroquinazolin-7-yl)oxy)methyl)piperidin-1-yl)ethyl)-3-oxopiperazin-1-yl)phenyl)amino)piperidine-2,6-dione]",< 30 nM
14,"O=C1CCC(Nc2ccc(N3CCC(N4CC(N5CCC(CCOc6cc(F)c7c(=O)[nH]c(CSC8CCOCC8)nc7c6)CC5)C4)CC3)c(F)c2)C(=O)N1 (stereo not drawn) [Example 235, 3-((3-fluoro-4-(4-(3-(4-(2-((5-fluoro-4-oxo-2-(((tetrahydro-2H-pyran-4-yl)thio)methyl)-3,4-dihydroquinazolin-7-yl)oxy)ethyl)piperidin-1-yl)azetidin-1-yl)piperidin-1-yl)phenyl)amino)piperidine-2,6-dione]",< 30 nM
15,"O=C1CCC(Nc2ccc(F)c(N3CCC(N4CC(N5CCC(COc6cc(F)c7c(=O)[nH]c(CSC8CCOCC8)nc7c6)CC5)C4)CC3)c2)C(=O)N1 (stereo not drawn) [Example 236, 3-((4-fluoro-3-(4-(3-(4-(((5-fluoro-4-oxo-2-(((tetrahydro-2H-pyran-4-yl)thio)methyl)-3,4-dihydroquinazolin-7-yl)oxy)methyl)piperidin-1-yl)azetidin-1-yl)piperidin-1-yl)phenyl)amino)piperidine-2,6-dione]",< 30 nM
